In ChEMBL document CHEMBL1201862, “PubChem BioAssay data set” (2004):
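48-hour exposure; five concentrations; linearly interpolated endpoints. Here, GI50 denotes the concentration required for 50% inhibition of growth.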 Calls of active or inactive are those of the source. Rule as the data show it: active = GI50 up to about 1.1 µM and inactive = higher.

Legend:
Test in all cases: inhibition of tumour cell growth, NCI panel, 48 h
PC-3 = tested on: PC-3
IGROV-1 = tested on: IGROV-1
HT-29 = tested on: HT-29
Hs-578T = tested on: Hs-578T
U-251 = tested on: U-251
SK-MEL-28 = tested on: SK-MEL-28
MCF7 = tested on: MCF7
OVCAR-5 = tested on: OVCAR-5
NCI-H460 = tested on: NCI-H460
ACHN = tested on: ACHN
M14 = tested on: M14
UACC-257 = tested on: UACC-257
SNB-75 = tested on: SNB-75
DU-145 = tested on: DU-145
BT-549 = tested on: BT-549
NCI-H226 = tested on: NCI-H226
MDA-MB-231 = tested on: MDA-MB-231
A498 = tested on: A498
HOP-92 = tested on: HOP-92

Measured: GI50

C[C@@]1(OC(=O)c2cc([N+](=O)[O-])cc([N+](=O)[O-])c2)C[C@@H]2CCCC[C@@H]21
inactive: PC-3 > 100 µM | IGROV-1 > 100 µM | HT-29 > 100 µM | Hs-578T 41.8 µM | U-251 > 100 µM | SK-MEL-28 > 100 µM | MCF7 > 100 µM | OVCAR-5 > 100 µM | NCI-H460 > 100 µM | ACHN > 100 µM | M14 > 100 µM | UACC-257 > 100 µM | SNB-75 48.2 µM | DU-145 > 100 µM | BT-549 > 100 µM | NCI-H226 > 100 µM | MDA-MB-231 > 100 µM

CSc1[nH]nc(N)c1C(=O)Nc1ccc(Cl)cc1
inactive: PC-3 55.5 µM | IGROV-1 98.9 µM | HT-29 41.5 µM | Hs-578T > 100 µM | A498 73.3 µM | U-251 92.3 µM | SK-MEL-28 > 100 µM | MCF7 84.7 µM | OVCAR-5 > 100 µM | NCI-H460 79.4 µM | M14 68.9 µM | UACC-257 > 100 µM | SNB-75 75.5 µM | DU-145 68.5 µM | BT-549 89.7 µM | NCI-H226 25.6 µM | MDA-MB-231 > 100 µM

COc1ccc2c(c1O)[C@@]13CCCC=C1[C@@H](C2)N(C)CC3
inactive: PC-3 59.6 µM | IGROV-1 > 100 µM | HT-29 32.1 µM | HOP-92 39.7 µM | Hs-578T 42.5 µM | U-251 > 100 µM | SK-MEL-28 > 100 µM | MCF7 81.5 µM | OVCAR-5 > 100 µM | NCI-H460 > 100 µM | ACHN > 100 µM | M14 79.6 µM | UACC-257 > 100 µM | SNB-75 36.7 µM | DU-145 > 100 µM | BT-549 34 µM | NCI-H226 31.6 µM | MDA-MB-231 77.6 µM

S=C1CC(c2ccccc2)Sc2cc(Cl)ccc2N1 (configuration not stated)
inactive: PC-3 1.87 µM | IGROV-1 16 µM | HT-29 4.4 µM | Hs-578T 8.91 µM | U-251 4.26 µM | SK-MEL-28 8.73 µM | MCF7 4.34 µM | OVCAR-5 > 100 µM | NCI-H460 6.59 µM | ACHN 9.46 µM | M14 3.12 µM | UACC-257 6.04 µM | SNB-75 5.24 µM | DU-145 > 100 µM | BT-549 8.79 µM | NCI-H226 14.2 µM | MDA-MB-231 7.57 µM

O=C1c2ccccc2-c2c1c(-c1ccc([N+](=O)[O-])cc1)nc1ccc3ccccc3c21
inactive: PC-3 > 100 µM | HT-29 > 100 µM | Hs-578T > 100 µM | A498 > 100 µM | U-251 > 100 µM | SK-MEL-28 > 100 µM | MCF7 > 100 µM | OVCAR-5 > 100 µM | NCI-H460 > 100 µM | ACHN > 100 µM | M14 > 100 µM | UACC-257 > 100 µM | SNB-75 > 100 µM | DU-145 > 100 µM | BT-549 > 100 µM | NCI-H226 > 100 µM | MDA-MB-231 > 100 µM

CC(NC(=O)c1c(O)[nH]c(=S)[nH]c1=O)c1ccc([N+](=O)[O-])cc1 (configuration not stated)
inactive: PC-3 40.7 µM | IGROV-1 > 100 µM | HT-29 > 100 µM | HOP-92 39.7 µM | Hs-578T > 100 µM | U-251 32.5 µM | SK-MEL-28 > 100 µM | MCF7 71 µM | OVCAR-5 > 100 µM | NCI-H460 > 100 µM | ACHN > 100 µM | M14 > 100 µM | UACC-257 > 100 µM | SNB-75 17.9 µM | DU-145 75.7 µM | BT-549 > 100 µM | NCI-H226 70.1 µM | MDA-MB-231 60.7 µM

O=C1C(Cl)C(c2cccc(Br)c2)N1c1c(O)c(Cl)cc(Br)c1Cl (configuration not stated)
inactive: PC-3 18 µM | IGROV-1 1.25 µM | HT-29 5.81 µM | HOP-92 6.93 µM | Hs-578T 9.46 µM | U-251 12.7 µM | MCF7 12.1 µM | OVCAR-5 26.7 µM | NCI-H460 14.1 µM | ACHN 15.2 µM | M14 13.9 µM | UACC-257 10.8 µM | DU-145 14.9 µM | BT-549 25.8 µM | NCI-H226 18.2 µM | MDA-MB-231 17 µM

COC(=O)C(C)(Cc1ccc2c(c1)nnn2C(C)=O)NC(C)=O (configuration not stated)
inactive: PC-3 > 100 µM | IGROV-1 > 100 µM | HT-29 > 100 µM | HOP-92 > 100 µM | Hs-578T > 100 µM | SK-MEL-28 > 100 µM | MCF7 > 100 µM | OVCAR-5 > 100 µM | NCI-H460 > 100 µM | ACHN > 100 µM | M14 > 100 µM | UACC-257 > 100 µM | SNB-75 > 100 µM | DU-145 > 100 µM | BT-549 > 100 µM | NCI-H226 > 100 µM | MDA-MB-231 > 100 µM
